Where a name gives a salt, the structure may show the parent alone.
Tests used:
[1] = tested on: arrhythmia induced by an intravenous administration of calcium chloride; test: Antiarrhythmic activity on a model of arrhythmia induced by intravenous calcium chloride (antagonism to calcium) in mice; assay type: in vivo; conditions: white mice, 20-40 minutes before
Procedure, shortened: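 Urethane-anaesthetised (1,200 mg/kg i.p.) white mice of both sexes, 18-25 g, with lead II ECG; 2% CaCl2 infused into the tail vein at 0.01 ml per 2 sec. Doses of CaCl2 producing arrhythmia and heart arrest were determined. Test compounds were given i.p. 20-40 min before infusion.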

[2] = in vivo; conditions: mouse, in vivo, ip
Procedure, shortened: (§1)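 Acute toxicity in white mice of 20-25 g, with compounds given intraperitoneally as aqueous solutions or Twin-80 suspensions. Animals observed for 10 days.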

[3] = tested on: white mice; test: in vivo
Procedure, shortened: as §1

[4] = currently employed in medicine; cited from earlier work
[5] = white mice, intraperitoneal, relative to quinidine

Compound | Dose of calcium chloride causing arrythmia in animals under experiment ([1]; intraperitoneal dose 5 mg/kg) | Dose of calcium chloride causing death in animals under experiment ([1]; intraperitoneal dose 5 mg/kg) | Dose of calcium chloride causing arrythmia in animals under experiment ([1]; intraperitoneal dose 15 mg/kg) | Dose of calcium chloride causing death in animals under experiment ([1]; intraperitoneal dose 15 mg/kg) | LD50 at 240 h [2] [mg/kg] | Relative toxisity to quinidine ([3]; mouse, in vivo, ip, 14400 min) | Relative toxisity to quinidine [3, 5] | Dose of calcium chloride causing arrythmia in animals under experiment ([1]; intraperitoneal dose 10 mg/kg) | Dose of calcium chloride causing death in animals under experiment ([1]; intraperitoneal dose 10 mg/kg) | Dose of calcium chloride causing arrythmia in animals under experiment ([1]; intraperitoneal dose 30 mg/kg) | Dose of calcium chloride causing death in animals under experiment ([1]; intraperitoneal dose 30 mg/kg) | acute toxicity (in words, background) [4] | Dose of calcium chloride causing arrythmia in animals under experiment ([1]; intraperitoneal dose 3 mg/kg) | Dose of calcium chloride causing death in animals under experiment ([1]; intraperitoneal dose 3 mg/kg)
COC(=O)CC(C(=O)OC)N(C(=O)c1ccccc1)N(C)C (stereo not shown) [I-58, 3-(2,2-dimethyl-1-benzoylhydrazino)-3-methoxycarbonyl-methylpropionate] | 97,0 mg/kg | 112,0 mg/kg | 100,5 mg/kg | 118,5 mg/kg | > 3000 | > 19,2 |  |  |  |  |  |  |  | 
CNC(=S)N(CCC(=O)O)N(C)C [I-59, Sodium salt of 3-(2,2-dimethyl-1-methylthiocarbamoylhydrazino)propionate] | 93,4 mg/kg | 108,6 mg/kg | 112,5 mg/kg | 130,0 mg/kg | 1800 | 11,5 |  |  |  |  |  |  |  | 
CCCCCCCCOC(=O)CCN(C(=S)Nc1ccccc1)N(C)C [I-60, 3-(2,2-dimethyl-1-phenylthiocarbamoylhydrazino)octylpropionate] | 90,8 mg/kg | 132,5 mg/kg | 107,5 mg/kg | 130,8 mg/kg | 2420 | 15,5 |  |  |  |  |  |  |  | 
CN(C)N(CCC#N)C(=O)Nc1ccccc1 [I-61, 3-(2,2-dimethyl-1-phenylcarbamoylhydrazino)propionitrile] | 105,0 mg/kg | 128,8 mg/kg | 102,6 mg/kg | 130,0 mg/kg | 1250 | 8,0 |  |  |  |  |  |  |  | 
CCC(=O)N(CCC#N)N(C)C [I-62, 3-(2,2-dimethyl-1-propionylhydrazino)-propionitrile] | 96,5 mg/kg | 120,5 mg/kg | 98,7 mg/kg | 118,5 mg/kg | 930 |  | 5,9 |  |  |  |  |  |  | 
CN(C)N(CCC#N)C(=O)c1ccccc1F [I-63, 3-(2,2-dimethyl-1-2'-fluorobenzoylhydrazino)propionitrile] | 101,5 mg/kg | 117,3 mg/kg | 112,3 mg/kg | 128,0 mg/kg | 1850 | 11,8 |  |  |  |  |  |  |  | 
CN(C)N(CCC(=O)O)C(=O)Nc1ccccc1 [I-64, Potassium salt of 3-(2,2-dimethyl-1-phenylcarbamoylhydrazino)-methylpropionate] | 98 mg/kg | 147 mg/kg | 141,7 mg/kg | 163 mg/kg | 1750 | 11,2 |  |  |  |  |  |  |  | 
CCN(CC)CCNC(=O)c1ccc(N)cc1 [Procaineamide, procaine amide, reference compound] |  |  |  |  | 290 |  |  | 116,0 mg/kg | 120,0 mg/kg | 127,0 mg/kg | 138,0 mg/kg | high acute toxicity |  | 
C=C[C@H]1C[N@@]2CC[C@H]1C[C@@H]2[C@@H](O)c1ccnc2ccc(OC)cc12 [Quinidine, quinidine, reference compound] |  |  |  |  | 156 |  | 1 | 120,8 mg/kg | 133,5 mg/kg |  |  | high acute toxicity | 126,9 mg/kg | 136,0 mg/kg
